Reference: patent US20230372498A1, “PLK1 SELECTIVE DEGRADATION INDUCING COMPOUND” (UPPTHERA, priority 2020, published 2023)
Like-named read-outs stand apart in the source and are kept apart here.

Biological target: T1, PLK1 (Homo sapiens, UniProt P53350)
T1 construct: endogenous in cells; host or cells: HeLa
Test: PLK1 protein degradation in HeLa cells, Western blotting (PLK1/GAPDH ratio)
Format: cell-based
Conditions: 6 hours compound incubation; for Dmax: thymidine block and release, 10 points three-fold from 3 μM, PLK1 to GAPDH ratio; for DC50: measured only if the grade of Dmax is A or B
Excerpt: The HeLa cell line was purchased from Korea Cell Line Bank (KCLB), Seoul, Korea. The passage in cell culture was maintained at P115 to P125.
For cell culture, DMEM (Gibco, Cat. No. 1195-65; Lot. No. 2085318), FBS (Gibco, Cat. No. 16000-044; Lot. No. 2097593), Penicillin/Streptomycin (PS) (Gibco, Cat. No. 15140-122; Lot. No. 2058855), 100 mm^2 cell culture dish (SPL, Cat. No. 20100), 150 mm^2 cell culture dish (SPL, Cat. No. 20150), 12-well culture plate (SPL, Cat. No. 30012), PBS pH 7.4 (Gibco, Cat. No. 10010-023; Lot. No. 2085080), TrypLE™ Express (Gibco, Cat. No. 12605-010; Lot No. 2070638), Counting Chamber (Hematocytometer) (Hirschmann, Cat. No. 8100204), and 0.4% Trypan Blue Solution (DYNEBIO, Cat. No. CBT3710; Lot. No. 20190723) were used.
2×10^5 cells were seeded for each well of a 12-well plate (SPL), and the cells were cultured in the culture medium in a total volume of 2 ml.
The compounds of Examples were completely dissolved in DMSO and used in the experiment, and thymidine was completely dissolved in DW and used in the experiment. For thymidine block, the products were treated with 2 mM of thymidine (Sigma-Aldrich Cat. No. T9250-5G) and then incubated for 24 hours.
For release and chemical treatment, the medium was suctioned and washed 3 times with 1×PBS. Complete media was added, followed by incubation for 4 hours in a CO2 incubator. Each compound was diluted three folds from the highest concentration of 3 μM to the lowest concentration in 10 points and then incubated for 6 hours again.
For SDS-PAGE and Western blotting, 1×RIPA lysis buffer (Rockland, Cat. No. MB-030-0050; Lot no. 39751), 100× Protease Inhibitor Cocktail (Quartett, Cat. No. PPI1015; Lot no. PCO50038424), Pierce™ BCA protein assay kit (ThermoScientific, Cat. No. 23225; Lot no. UC276876), albumin standard (ThermoScientific, Cat. No. 23209; Lot no. UB269561), 4-15% Mini-PROTEAN TGX stain-free gel (Bio-rad, Cat. No. 4568085; Lot no. L007041B), 10× Tris/Glycine/SDS buffer (Bio-rad, Cat. No. 1610732; Lot no. 10000044375B); 10×TBS (Bio-rad, Cat. No. 1706435; Lot no. 1000045140B), 10% Tween 20 (Cat. No. 1610781; Lot no. L004152B), Color protein standard broad range (NEB, Cat. No. P7719S; Lot no. 10040349), 4× Laemmli sample buffer (Bio-rad, Cat. No. 1610747; Lot no. L004133B), β-mercaptoethanol (Sigma-Aldrich, Cat. No. M3148; Lot no. 60-24-2), SuperBlock™ T20 (TBS) blocking buffer (ThermoScientific, Cat. No. 37536; Lot no. UC282578), 1M sodium azide solution (Sigma-Aldrich, Cat. No. 08591-1 mL-F; Lot no. BCBV4989), α-Rabbit pAb to Ms IgG (abcam, Cat. No. ab97046; Lot no. GR3252115-1), α-Goat pAb to Rb IgG (CST, Cat. No. 7074S; Lot no. 28), α-GAPDH (abcam, Cat. No. ab8245; Lot no. GR3275542-2), α-Plk1 (CST, Cat. No. 208G4), α-BRD4 (CST, Cat. No. 13440S), ECL™ Prime western blotting reagents (GE Healthcare, Cat. No. RPN2232; Lot no. 17001655), Ponceau S solution (Sigma-Aldrich, Cat. No. P7170; Lot no. SLBV4112), Difco™ Skim milk (BD, Cat. No. 232100; Lot no. 8346795), and iBlot® 2 NC Regular stacks (Invitrogen, Cat. No. IB323001; Lot no. 2NR110619-02) were used.
For cell harvesting, the cells were first separated from the plate using trypsin and then washed with the medium and PBS. Specifically, the medium was suctioned off and washed with 1 mL of PBS, and PBS was suctioned off. The cells were treated with 0.5 mL TrypLE™ Express at 37° C. for 7 minutes to separate the cells, and then 0.5 mL of complete medium was added to collect 1 mL of cell culture solution. Then, 1 mL of the cell collection solution was centrifuged at 8,000 rpm for 120 seconds, and the supernatant was removed. After washing with 0.2 mL of PBS, the PBS was removed.
For cell lysis, a lysis buffer was added and cell debris was removed to obtain a cell lysate. Specifically, the cells were treated with 70 μL of 1×RIPA buffer containing a protease inhibitor and incubated for 30 minutes on ice. Then, the cells were centrifuged at 4° C. and 15,000 rpm for 10 minutes to obtain a cell lysate. […]

T1 sequence (P53350 whole entry): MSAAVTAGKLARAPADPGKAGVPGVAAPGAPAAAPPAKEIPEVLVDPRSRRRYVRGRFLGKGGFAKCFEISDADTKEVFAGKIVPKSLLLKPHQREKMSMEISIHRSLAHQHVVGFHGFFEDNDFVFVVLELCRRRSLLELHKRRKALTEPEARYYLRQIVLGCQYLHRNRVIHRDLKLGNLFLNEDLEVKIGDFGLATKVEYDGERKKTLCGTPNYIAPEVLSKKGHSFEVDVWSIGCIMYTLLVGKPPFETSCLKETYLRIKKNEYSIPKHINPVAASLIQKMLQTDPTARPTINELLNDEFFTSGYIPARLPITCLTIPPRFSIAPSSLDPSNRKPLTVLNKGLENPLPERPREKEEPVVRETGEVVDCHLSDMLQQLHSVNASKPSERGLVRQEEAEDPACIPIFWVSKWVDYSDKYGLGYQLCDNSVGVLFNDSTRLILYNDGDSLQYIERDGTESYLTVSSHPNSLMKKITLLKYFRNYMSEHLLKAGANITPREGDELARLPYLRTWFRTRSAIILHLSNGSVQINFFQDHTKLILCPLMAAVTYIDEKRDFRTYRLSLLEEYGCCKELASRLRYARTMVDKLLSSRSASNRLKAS

| Structure (SMILES) | Dmax | DC50 | Dmax (read-out: Dmax) |
| --- | --- | --- | --- |
| COc1cc(C(=O)NC2CCN(CCOCCOCCOCCOCC(=O)N[C@H](C(=O)N3C[C@H](O)C[C@H]3C(=O)NCc3ccc(-c4scnc4C)cc3)C(C)(C)C)CC2)c(F)cc1Nc1ncc2c(n1)N(C1CCCC1)CC(F)(F)C(=O)N2C [Example 82] | C (C: less than 60%) | – | – |
| COc1cc(C(=O)NC2CCN(CCOCCOCCNc3cccc4c3CN(C3CCC(=O)NC3=O)C4=O)CC2)c(F)cc1Nc1ncc2c(n1)N(C1CCCC1)CC(F)(F)C(=O)N2C (centres unmarked) [Compound 75, 4-((9-cyclopentyl-7,7-difluoro-5-methyl-6-oxo-6,7,8,9-tetrahydro-5H-pyrimido[4,5-b][1,4]diazepin-2-yl)amino)-N-(1-(2-(2-(2-((2-(2,6-dioxopiperidin-3-yl)-1-oxoisoindolin-4-yl)amino)ethoxy)ethoxy)ethyl)piperidin-4-yl)-2-fluoro-5-methoxybenzamide] | – | ≤ 50 nM | ≥ 80% |
| COc1cc(C(=O)NC2CCN(CCCCCCCCCCCCCCNc3cccc4c3C(=O)N(C3CCC(=O)NC3=O)C4=O)CC2)c(F)cc1Nc1ncc2c(n1)N(C1CCCC1)CC(F)(F)C(=O)N2C (centres unmarked) [Compound 17, 4-((9-cyclopentyl-7,7-difluoro-5-methyl-6-oxo-5H,6H,7H,8H,9H-pyrimido[4,5-b][1,4]diazepin-2-yl)amino)-N-(1-(14-((2-(2,6-dioxopiperidin-3-yl)-1,3-dioxo-2,3-dihydro-1H-isoindol-4-yl)amino)tetradecyl)piperidin-4-yl)-2-fluoro-5-methoxybenzamide] | – | – | < 60% |
| COc1cc(C(=O)NC2CCN(CCCCCCCc3cncc(CNC(=O)COc4cccc5c4C(=O)N(C4CCC(=O)NC4=O)C5=O)c3)CC2)c(F)cc1Nc1ncc2c(n1)N(C1CCCC1)CC(F)(F)C(=O)N2C (centres unmarked) [Compound 64, 4-((9-cyclopentyl-7,7-difluoro-5-methyl-6-oxo-6,7,8,9-tetrahydro-5H-pyrimido[4,5-b][1,4]diazepin-2-yl)amino)-N-(1-(7-(5-((2-((2-(2,6-dioxopiperidin-3-yl)-1,3-dioxoisoindolin-4-yl)oxy)acetamido)methyl)pyridin-3-yl)heptyl)piperidin-4-yl)-2-fluoro-5-methoxybenzamide] | – | ≤ 50 nM | ≥ 80% |
| COc1cc(C(=O)NC2CCN(CCOCCOCCOCCOCC(=O)Nc3cccc4c3C(=O)N(C3CCC(=O)NC3=O)C4=O)CC2)c(F)cc1Nc1ncc2c(n1)N(C1CCCC1)CC(F)(F)C(=O)N2C (centres unmarked) [Compound 27, 14-(4-(4-((9-cyclopentyl-7,7-difluoro-5-methyl-6-oxo-6,7,8,9-tetrahydro-5H-pyrimido[4,5-b][1,4]diazepin-2-yl)amino)-2-fluoro-5-methoxybenzamido)piperidin-1-yl)-N-(2-(2,6-dioxopiperidin-3-yl)-1,3-dioxoisoindolin-4-yl)-3,6,9,12-tetraoxatetradecanamide] | – | ≤ 500 nM | 60 to 80% |
| COc1cc(C(=O)NCCCCCCCc2cccc3c2CN(C2CCC(=O)NC2=O)C3=O)c(F)cc1Nc1ncc2c(n1)N(C1CCCC1)CC(F)(F)C(=O)N2C (centres unmarked) [Example 166, 4-((9-cyclopentyl-7,7-difluoro-5-methyl-6-oxo-6,7,8,9-tetrahydro-5H-pyrimido[4,5-b][1,4]diazepin-2-yl)amino)-N-(7-(2-(2,6-dioxopiperidin-3-yl)-1-oxoisoindolin-4-yl)heptyl)-2-fluoro-5-methoxybenzamide] | – | – | 60 to 80% |
| COc1cc(C(=O)NC2CCN(CCCCCCCCOCC(=O)N[C@H](C(=O)N3C[C@H](O)C[C@H]3C(=O)NCc3ccc(-c4scnc4C)cc3)C(C)(C)C)CC2)c(F)cc1Nc1ncc2c(n1)N(C1CCCC1)CC(F)(F)C(=O)N2C [Example 84] | B (B: Dmax is 80% or less and 60% or more) | ≤ 500 nM | – |
